Legend:
[1] = tested on: Phaedon cochleariae (mustard beetles); assay: Pest toxicity test; type: in vivo; details: 0.1% by weight; mustard/paper; 2 days
Speedwell = assay: Selective herbicidal activity; type: in vivo, Veronica spp; details: 28 days, scale 0 to 10 (complete kill)
Description: (§1) This Example illustrates the selective herbicidal activity of compounds No. 5 and 12 of Table 1. The compounds, formulated as in Example 5 were sprayed on to pots of soil previously sown with seeds of the plant species shown in Tables 13 and 14.

[2] = tested on: Tetranychus telarius (red spider mites, eggs); assay: Pest toxicity test; type: in vivo; details: 0.1% by weight; French bean; 3 days
Tomato = assay: Herbicidal test, pre- and post-emergence; type: in vivo; details: 10 lb/acre (11.2 kg/ha); scale 0 (no effect) to 3 (complete kill)
Megoura viceae = assay: Pest toxicity test; type: in vivo; details: 0.1% by weight; broad bean; 2 days
Wheat [3] = assay: Herbicidal test, pre- and post-emergence; type: in vivo; details: 10 lb/acre (11.2 kg/ha); scale 0 (no effect) to 3 (complete kill)
Aphis fabae = assay: Pest toxicity test; type: in vivo; details: 0.1% by weight; broad bean; 2 days
Uncinula necator (vine) = assay: Fungicidal test against foliar disease D (foliage spray plus soil drench); type: in vivo; details: 100 ppm spray and drench; 10 days
Lettuce = assay: Herbicidal test, pre- and post-emergence; type: in vivo; details: 10 lb/acre (11.2 kg/ha); scale 0 (no effect) to 3 (complete kill)
Rice = assay: Further herbicidal test, various rates; type: in vivo; details: scale 0 to 5 (complete kill)
[4] = tested on: Venturia inaequalis (apple); assay: Fungicidal test against foliar disease G (foliage spray plus soil drench); type: in vivo; details: 100 ppm spray and drench; 21 days
Protocol: This Example illustrates the fungicidal properties of compounds used as active ingredients in the compositions of the invention. The compounds were tested against a wide variety of foliar fungal diseases of plants. In the test, a composition comprising an aqueous solution or suspension of the test compound was sprayed on to the foliage or uninfected plants; the soil in which the plants were growing was also drenched with the composition. The compositions used for spraying and drencing contained 100 parts per million (ppm.) of the test compound except where otherwise stated in the table of results below. After spraying and drenching, the plants were then exposed to infection with the diseases it was desired to control, along with control plants not treated with the compound. After a period of days, depending upon the particular disease, the extent of the disease was visually assessed, as a percentage of the disease established upon the control plants which had not been treated with the compound under test, according to the grading scheme below
In Table 2 below the names of the disease is given in the first column, and in the second column is given the time which elapsed between exposing the plants to infection and assessing the amount of disease.

Pea = assay: Further herbicidal test, various rates; type: in vivo; details: scale 0 to 5 (complete kill)
Oat = assay: Further herbicidal test, various rates; type: in vivo; details: scale 0 to 5 (complete kill)
Mayweed = assay: Selective herbicidal activity; type: in vivo, Tripleurospermum maritimum ssp. inodorum; details: 28 days, scale 0 to 10 (complete kill)
Description: as §1
Mayweed Tripleurospermum maritimum

Redshank = assay: Selective herbicidal activity; type: in vivo, Polygonum persicaria; details: 28 days, scale 0 to 10 (complete kill)
Description: as §1
Redshank Polygonum persicaria

Chickweed = assay: Selective herbicidal activity; type: in vivo, Stellaria media; details: 28 days, scale 0 to 10 (complete kill)
Description: as §1
Chickweed Stellaria media

White mustard = assay: Selective herbicidal activity; type: in vivo, Sinapis alba; details: 28 days, scale 0 to 10 (complete kill)
Description: as §1
White mustard Sinapis alba

Barley [5] = assay: Further herbicidal test, various rates; type: in vivo; details: scale 0 to 5 (complete kill)
Maize = assay: Herbicidal test, pre- and post-emergence; type: in vivo; details: 10 lb/acre (11.2 kg/ha); scale 0 (no effect) to 3 (complete kill)
Groundsel = assay: Selective herbicidal activity; type: in vivo, Senecio vulgaris; details: 28 days, scale 0 to 10 (complete kill)
Description: as §1
Groundsel Senecio vulgaris

[6] = tested on: Plasmopara viticola (vine); assay: Fungicidal test against foliar disease C (foliage spray plus soil drench); type: in vivo; details: 100 ppm spray and drench; 10 days
[7] = tested on: Aedes aegypti (mosquito larvae); assay: Pest toxicity test; type: in vivo
[8] = tested on: Tetranychus telarius (red spider mites, adults); assay: Pest toxicity test; type: in vivo; details: 0.1% by weight; French bean; 3 days
[9] = tested on: Piricularia oryzae (rice); type: in vivo; details: 100 ppm spray and drench; 7 days
[10] = tested on: Aedes aegypti (mosquito adults); assay: Pest toxicity test; type: in vivo; details: 0.01% by weight; plywood; 1 day
[11] = tested on: Plutella maculipennis (diamond back moth larvae); assay: Pest toxicity test; type: in vivo; details: 0.1% by weight; mustard/paper; 2 days
broadleaved plants = assay: Selective herbicidal activity; type: in vivo; details: Tables 13 and 14
Description: as §1
(§2) Table 14 gives the results for compound No. 12 of Table 1 The figures are assessments of damage to the plants 23 days after treatment, on a scale of 0 to 5 where 0 is no effect and 5 is complete kill

Wheat [12] = assay: Selective herbicidal activity; type: in vivo; details: for Damage to plants: 28 days, scale 0 to 10 (complete kill)
Description: as §1, §2

Barley [13] = assay: Selective herbicidal activity; type: in vivo; details: for Damage to plants: 28 days, scale 0 to 10 (complete kill)
Description: as §1, §2

[14] = tested on: Puccinia recondita (wheat); assay: Fungicidal test against foliar disease A (foliage spray plus soil drench); type: in vivo; details: 100 ppm spray and drench; 10 days
Annual Nettle = assay: Selective herbicidal activity; type: in vivo, Urtica urens; details: 28 days, scale 0 to 10 (complete kill)
Description: as §1
Annual Nettle Urtica urens

Wild oat = assay: Selective herbicidal activity; type: in vivo, Avenua fatua; details: 28 days, scale 0 to 10 (complete kill)
Description: as §1

[15] = tested on: Pieris brassicae (cabbage white caterpillars); assay: Pest toxicity test; type: in vivo; details: 0.1% by weight, 2 days
Kale = assay: Further herbicidal test, various rates; type: in vivo; details: scale 0 to 5 (complete kill)
[16] = tested on: Musca domestica (houseflies); assay: Pest toxicity test, contact test; type: in vivo; details: 0.1% by weight; milk/sugar; 2 days; flies sprayed directly
Carrot = assay: Further herbicidal test, various rates; type: in vivo; details: scale 0 to 5 (complete kill)
Sugar beet = assay: Further herbicidal test, various rates; type: in vivo; details: scale 0 to 5 (complete kill)
Onion = assay: Further herbicidal test, various rates; type: in vivo; details: scale 0 to 5 (complete kill)

## O=[N+]([O-])c1ccc(Nc2c(Cl)c(F)nc(F)c2Cl)c(C(F)(F)F)c1 [Compound 5]
[1]
  Mortality grading (kill): 0 (O represents less than 30% kill)
Speedwell; 0.5 kg/hectare
  Damage to plants: 10
Speedwell; 4 kg/hectare
  Damage to plants: 10
[2]
  Mortality grading (kill): 3 (3 represents over 90% kill)
Tomato
  Damage to plants, post-emergence: 3
  Damage to plants, pre-emergence: 3
Megoura viceae
  Mortality grading (kill): 3 (3 represents over 90% kill)
Wheat [3]
  Damage to plants, post-emergence: 0
  Damage to plants, pre-emergence: 2
Aphis fabae
  Mortality grading (kill): 3 (3 represents over 90% kill)
Uncinula necator (vine)
  Amount of disease grading, disease D: 3 (0 to 5)
Lettuce
  Damage to plants, post-emergence: 3
  Damage to plants, pre-emergence: 3
Rice; 1 lb/acre
  Damage to plants, post-emergence: 0
  Damage to plants, pre-emergence: 3
Rice; 5 lb/acre
  Damage to plants, post-emergence: 0
  Damage to plants, pre-emergence: 5
[4]
  Amount of disease grading, disease G: 3 (0 to 5)
Pea; 1 lb/acre
  Damage to plants, post-emergence: 4
  Damage to plants, pre-emergence: 0
Pea; 5 lb/acre
  Damage to plants, post-emergence: 4
  Damage to plants, pre-emergence: 3
Oat; 1 lb/acre
  Damage to plants, post-emergence: 3
  Damage to plants, pre-emergence: 2
Oat; 5 lb/acre
  Damage to plants, post-emergence: 4
  Damage to plants, pre-emergence: 5
Mayweed; 0.5 kg/hectare
  Damage to plants: 6
Mayweed; 4 kg/hectare
  Damage to plants: 10
Redshank; 0.5 kg/hectare
  Damage to plants: 5
Redshank; 4 kg/hectare
  Damage to plants: 10
Chickweed; 0.5 kg/hectare
  Damage to plants: 8
Chickweed; 4 kg/hectare
  Damage to plants: 10
White mustard; 0.5 kg/hectare
  Damage to plants: 0
White mustard; 4 kg/hectare
  Damage to plants: 8.5
Barley [5]; 1 lb/acre
  Damage to plants, post-emergence: 3
  Damage to plants, pre-emergence: 5
Barley [5]; 5 lb/acre
  Damage to plants, post-emergence: 3
  Damage to plants, pre-emergence: 5
Maize
  Damage to plants, post-emergence: 0
  Damage to plants, pre-emergence: 0
Groundsel; 0.5 kg/hectare
  Damage to plants: 4
Groundsel; 4 kg/hectare
  Damage to plants: 10
[6]
  Amount of disease grading, disease C: 3 (0 to 5)
[7]; 0.01% by weight, water, 1 day
  Mortality grading (kill): 0 (O represents less than 30% kill)
[7]; in vivo
  abnormal growth effects in larva of mosquitos: abnormal growth effects
[8]
  Mortality grading (kill): 3 (3 represents over 90% kill)
[9]
  Amount of disease grading, disease E: 0 (61 to 100)
[10]
  Mortality grading (kill): 0 (O represents less than 30% kill)
[11]
  Mortality grading (kill): 1 (1 represents 30 - 49% kill)
Broadleaved plants
  damage to the broadleaved plants (in words): caused damage to the broadleaved plants
Wheat [12]; 0.5 kg/hectare
  Damage to plants: 0
Wheat [12]; 4 kg/hectare
  Damage to plants: 0
Wheat [12]; Tables 13 and 14
  damage to wheat (in words): undamaged
Barley [13]; 0.5 kg/hectare
  Damage to plants: 0
Barley [13]; 4 kg/hectare
  Damage to plants: 0
Barley [13]; Tables 13 and 14
  damage to barley (in words): undamaged
[14]
  Amount of disease grading, disease A: 3 (0 to 5)
Annual Nettle; 0.5 kg/hectare
  Damage to plants: 10
Annual Nettle; 4 kg/hectare
  Damage to plants: 10
Wild oat; 0.5 kg/hectare
  Damage to plants: 0
Wild oat; 4 kg/hectare
  Damage to plants: 5.5
[15]
  Mortality grading (kill): 3 (3 represents over 90% kill)
Kale; 1 lb/acre
  Damage to plants, post-emergence: 5
  Damage to plants, pre-emergence: 0
Kale; 5 lb/acre
  Damage to plants, post-emergence: 5
  Damage to plants, pre-emergence: 5
[16]
  Mortality grading (kill), contact test: 0 (O represents less than 30% kill)
Carrot; 1 lb/acre
  Damage to plants, post-emergence: 5
  Damage to plants, pre-emergence: 2
Carrot; 5 lb/acre
  Damage to plants, post-emergence: 5
  Damage to plants, pre-emergence: 5
Sugar beet; 1 lb/acre
  Damage to plants, post-emergence: 5
  Damage to plants, pre-emergence: 0
Sugar beet; 5 lb/acre
  Damage to plants, post-emergence: 5
  Damage to plants, pre-emergence: 5
Onion; 1 lb/acre
  Damage to plants, post-emergence: 3
  Damage to plants, pre-emergence: 0
Onion; 5 lb/acre
  Damage to plants, post-emergence: 5
  Damage to plants, pre-emergence: 5

Source: patent US3965109A, “Certain aryl amino pyridines” (priority 1971, dated 1976)
